Measurements published in patent US4806532A, “Inhibition of epithelial phosphate transport” (Mayo Foundation for Medical Education and Research, priority 1985, dated 1989).
Counter-ions that a name gives are not always drawn. Like-named read-outs stand apart in the source and are kept apart here.

What was measured:
[1] = target: T1, Na-Pi cotransporter (Rattus norvegicus, UniProt Q06496); test: Na+-gradient-dependent 32Pi uptake by renal cortical BBMV (rapid filtration); assay type: biochemical; conditions: for 32Pi Uptake 120 min / 32Pi Uptake 20 sec: 5 min preincubation; for 32Pi Uptake 120 min: equilibrium; for 32Pi Uptake 20 sec: mean ± SE of 3-5 experiments
T1 construct: from tissue; host or cells: rat renal cortex, brush border membrane vesicles
T1 sequence (Q06496 1-637): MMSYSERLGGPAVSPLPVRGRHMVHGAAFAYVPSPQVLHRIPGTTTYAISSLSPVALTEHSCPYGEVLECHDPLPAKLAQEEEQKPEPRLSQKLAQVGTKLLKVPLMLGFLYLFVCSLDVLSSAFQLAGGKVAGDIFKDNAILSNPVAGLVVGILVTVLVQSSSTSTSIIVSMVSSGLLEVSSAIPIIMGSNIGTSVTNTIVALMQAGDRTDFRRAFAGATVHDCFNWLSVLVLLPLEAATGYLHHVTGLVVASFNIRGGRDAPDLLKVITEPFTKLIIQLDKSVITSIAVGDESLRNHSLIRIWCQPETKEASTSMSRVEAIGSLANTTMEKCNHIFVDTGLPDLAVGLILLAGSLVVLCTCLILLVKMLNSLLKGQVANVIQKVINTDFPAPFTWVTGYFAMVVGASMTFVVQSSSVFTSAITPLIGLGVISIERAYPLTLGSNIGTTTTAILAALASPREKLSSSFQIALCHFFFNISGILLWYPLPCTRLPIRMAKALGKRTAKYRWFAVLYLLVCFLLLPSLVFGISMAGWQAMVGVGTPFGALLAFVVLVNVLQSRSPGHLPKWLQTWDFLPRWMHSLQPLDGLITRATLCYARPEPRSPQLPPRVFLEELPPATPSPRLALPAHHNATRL
Protocol: (§1) The brush border membrane vesicles (BBMV) were prepared from renal cortical tissue of adult male Sprague-Dawley rats of an average body weight of about 220 grams. Rats were fed ad libitum standard rat chow containing 0.7% Pi and had free access to distilled water. Rats were sacrificed under anesthesia and dissected renal cortical tissue was used for preparation of BBMV fraction by the divalent cation-precipitation procedure, employed and described in detail in J. Clin. Invest., 67, 1347 (1981) and J. Biol. Chem., 258, 5695 (1983), with the following modifications: (a) MgCl2 instead of CaCl2 was added to crude homogenate (final concentration 10 mM MgCl2) to precipitate membranes other than BBMV; (b) in the final step, BBMV were washed and equilibrated in a medium of pH=7.5, instead of pH=8.5. The enrichment and specific activities of typical BBM enzymes alkaline phosphatase (APases), γ-glutyamyl transferase (γ-GTT), leucineaminopeptidase (LAP) and maltase with use of these modifications were similar as in BBMV fractions prepared in our previous studies. As a final step in the preparative procedure, the BBMV fraction was washed and resuspended in a medium containing 300 mM mannitol and 5 mM Tris-HEPES adjusted to pH=t.5, referred to as "MTH-medium," unless specified otherwise. The analogous BBMV fractions, using the same procedure, were prepared from renal cortices of mongrel dogs, albino mice and New Zealand albino rabbits.
The BBMV uptake of ^32 Pi, D-[^3 H]-glucose, L-[^3 H]-proline and ^22 Na^+ was measured by means of a rapid filtration technique, as described in J. Clin. Invest., 67, 1347 (1981) and Am. J. Physiol., 246, F133-F139 (1984). Also, unless specified otherwise, the medium for the solute uptake assay consisted of following compounds (in final concentrations): 100 mM mannitol, 100 mM NaCl (or 100 mM KC1) and 5 mM Tris-HEPES (pH=7.5) and eitehr 0.1 mM K2 H^32 PO4, or 0.05 mM D-[^3 H]-glucose, or 0.025 mM L-[^3 H]-proline. IN the ^22 Na^+ uptake studies, the assay medium contained 100 mM ^22 NaCl (^22 NaCl about […] per tube), 100 mM mannitol and 5 mM Tris-HEPES (pH 7.5).
In most experiments, the Na^+ -gradient-dependent ^32 Pi uptake in the concentrative "uphill" phase was measured at 20 seconds period. Since Na^+ -independent Pi uptake in this time period was quantitatively minor component (<5%) of the Na^+ -gradient-dependent Pi uptake, it was not routinely subtracted.

[2] = tested on: L-[^3 H]--proline uptake by BBMV from rat small intestine; test: L-[3H]-proline uptake by intestinal BBMV; assay type: biochemical; conditions: 1 mM; for L-[3H]-proline uptake 15 sec: control 27 ± 0.2; for L-[3H]-proline uptake 120 min: control 53 ± 2
[3] = tested on: D-[^3 H]--glucose uptake by BBMV from rat small intestine; test: D-[3H]-glucose uptake by intestinal BBMV; assay type: biochemical; conditions: 1 mM; for D-[3H]-glucose uptake 120 min: control 57 ± 2; for D-[3H]-glucose uptake 15 sec: control 67 ± 0.5
Protocol: The intestinal BBMV fractions were prepared from mucosa of rat small intestine of rats using the modified magnesium- precipitation method as described by B. Steiger and H. Murer [Eur. J. Biochem., 135, 95 (1983)]. This intestinal BBMV fraction is analogous to the BBMV fraction isolated from kidney. […]

[4] = tested on: ^14 C--succinate uptake by BBMV from rat small intestine; test: 14C-succinate uptake by intestinal BBMV; assay type: biochemical; conditions: 1 mM; for 14C-succinate uptake 120 min: control 78 ± 3; for 14C-succinate uptake 15 sec: control 118 ± 7
[5] = tested on: intestinal BBM alkaline phosphatase; test: Effect on intestinal BBM alkaline phosphatase (data not shown); assay type: biochemical, rat
[6] = Hydrolysis of phosphono-compounds (release of Pi) in the BBMV assay; conditions: 1 mM; hydrolysis to release more than 5% Pi
Excerpt: Compounds studied in the present experiments which inhibited BBM transport of Pi without hydrolysis to release more than 5% Pi are listed in Table 1.

[7] = tested on: L-[^3 H]-proline uptake by BBMV; test: Na+-gradient-dependent uptake of L-[3H]-proline by renal BBMV; assay type: biochemical, rat; conditions: 1 mM TPFA; mean ± SEM, n=4; control 43±3
Protocol: as §1, with “As a final step in the preparative procedure, the BBMV fraction was washed and resuspended in a medium containing 300 mM mannitol and 5 mM Tris-HEPES adjusted to pH=t.5, referred to as "MTH-medium," unless specified otherwise. The analogous BBMV fractions, using the same procedure, were prepared from renal cortices of mongrel dogs, albino mice and New Zealand albino rabbits.” left out
(§2) The BBMV uptake of ^32 Pi, D-[^3 H]-glucose, L-[^3 H]-proline and ^22 Na^+ was measured by means of a rapid filtration technique, as described in J. Clin. Invest., 67, 1347 (1981) and Am. […]

[8] = tested on: D-[^3 H]-glucose uptake by BBMV; test: Na+-gradient-dependent uptake of D-[3H]-glucose by renal BBMV; assay type: biochemical, rat; conditions: 1 mM TPFA; mean ± SEM, n=4; control 66±15
Protocol: as §1, with “As a final step in the preparative procedure, the BBMV fraction was washed and resuspended in a medium containing 300 mM mannitol and 5 mM Tris-HEPES adjusted to pH=t.5, referred to as "MTH-medium," unless specified otherwise. The analogous BBMV fractions, using the same procedure, were prepared from renal cortices of mongrel dogs, albino mice and New Zealand albino rabbits.” left out
as §2

[9] = in vivo; cited from earlier work
[10] = 1 mM, initial uptake at 20 sec, rat kidney cortex BBMV, read-out: Δ% (inhibition as percent decrease from control) of Na+-gradient-dependent 32Pi uptake

Structure (SMILES) | Δ% ratio of uptake at uphill phase (20 sec) and equilibrium phase (120 min) ([1]; 0.2 mM) | 32Pi Uptake 120 min ([1]; 0.2 mM) [pmoles/mg protein] | 32Pi Uptake 20 sec ([1]; 0.2 mM) [pmoles/mg protein] | Δ% ratio of uptake at uphill phase (20 sec) and equilibrium phase (120 min) ([1]; 1.0 mM) | 32Pi Uptake 120 min ([1]; 1.0 mM) [pmoles/mg protein] | 32Pi Uptake 20 sec ([1]; 1.0 mM) [pmoles/mg protein] | inhibition at 1000 µM [1, 10] [%] | Δ% ratio of uptake at uphill phase (20 sec) and equilibrium phase (120 min) ([1]; 5.0 mM) | 32Pi Uptake 120 min ([1]; 5.0 mM) [pmoles/mg protein] | 32Pi Uptake 20 sec ([1]; 5.0 mM) [pmoles/mg protein] | L-[3H]-proline uptake 15 sec [2] [pmoles/mg protein] | L-[3H]-proline uptake 120 min [2] [pmoles/mg protein] | D-[3H]-glucose uptake 120 min [3] [pmoles/mg protein] | D-[3H]-glucose uptake 15 sec [3] [pmoles/mg protein] | 14C-succinate uptake 120 min [4] [pmol/mg protein] | 14C-succinate uptake 15 sec [4] [pmol/mg protein] | inhibition of intestinal BBM alkaline phosphatase [5] | Note: hydrolysis [6] | further results
O=C(O)CP(=O)(O)O [PAA, phosphonoacetic acid] | +305 ± 101% | 320 ± 80 | 1057 ± 89 | +331 ± 86% | 274 ± 51 | 1019 ± 94 | -18 | +261 ± 78% | 269 ± 52 | 876 ± 68 | 27 ± 1.0 | 55 ± 1.0 | 61 ± 3 | 68 ± 3 | 89 ± 3 | 127 ± 2 | neither TPFA or PAA inhibited | no | –
O=C(O)P(=O)(O)O [TPFA, Phosphonoformic acid, trisodium salt hexahydrate] | +262 ± 44% | 264 ± 53 | 869 ± 45 | +137 ± 27% | 248 ± 47 | 541 ± 39 | -53 | < 0.0% | 239 ± 44 | 153 ± 28 | 27 ± 0.4 | 54 ± 0.1 | 57 ± 2 | 69 ± 2 | 81 ± 1 | 125 ± 3 | neither TPFA or PAA inhibited | no | effect on intravesicular volume of BBMV [1]: did not alter; nature of the inhibitory effect on Pi uptake [1]: competitive; inhibition at 1000 µM ([1]; 20 s, Rat, 1 mM TPFA, read-out: percent decrease of 20 sec 32Pi-uptake relative to control value): 59.1%; inhibition at 5000 µM ([1]; 20 s, Rat, 5 mM TPFA, read-out: percent decrease of 20 sec 32Pi-uptake relative to control value): 78%; effect on 32Pi uptake by BBMV in the absence of Na+ ([1]; NaCl replaced by KCl, 1 mM TPFA, FIG. 1): had no effect; 32Pi-uptake 120 min ([1]; Rat, 1 mM TPFA, control 361 ± 9): 359 ± 8 pmoles Pi/mg protein/time; 32Pi-uptake 20 sec ([1]; Rat, 1 mM TPFA, control 1570 ± 31): 783 ± 6 pmoles Pi/mg protein/time; 32Pi-uptake 20 sec ([1]; Rat, 5 mM TPFA): 344 ± 7 pmoles Pi/mg protein/time; 32Pi-uptake 120 min ([1]; Rat, 5 mM TPFA): 379 ± 34 pmoles Pi/mg protein/time; Ki ([1]; competitive inhibition, renal cortical BBMV): 460 µM; effect on 32Pi uptake under Na+ equilibrium conditions [Na+i = Na+o] ([1]; initial fast uptake phase (0-60 seconds), data not shown): inhibited; equilibrium uptake of L-[3H]-proline at 120 minutes [7]: 43+1 pmoles/mg protein; uptake of D-[3H]-glucose at 120 minutes [8]: 65±12 pmoles/mg protein; toxic effects on bone in general toxicity studies [9]: not toxic effects on bone
